One experiment concerns TNF-α. The experiment in a line: Effect on intra-articular LPS induced TNF-α in rat ankles. Type of experiment: in vivo. Particulars: female Lewis rats. How it is done:
Intra-articular injection of LPS into rat ankles induces the synthesis of TNF-α, which can be measured in synovial lavage fluid. High levels of TNF-α are detectable within 2 hours. Since the joint is the site where arthritis develops, this model can rapidly determine whether an orally administered compound has an effect on an inflammatory response in the synovium.
Six female Lewis rats (150-200 g) are place in each treatment group. The animals are given vehicle (1% NaCarboxymethylcellulose-0.25% Tween 80) or Example 6 (1 mg/kg, 3 mg/kg, 10 mg/kg, and 30 mg/kg) orally. One hour later, 10 μl LPS (10 μg) is administered intra-articularly into the right ankle of each rat, while the left ankle receives 10 μL of saline. After two hours, each ankle is lavaged with 100 μL of saline. The lavage is collected and stored at −80° C. • Group#1: Vehicle (1% NaCMC-0.25% Tween 80, 1 mL, PO) • Group#2: Example 6 (free base) (1 mg/kg, 1 mL, PO) • Group#3: Example 6 (free base) (3 mg/kg, 1 mL, PO) • Group#4: Example 6 (free base) (10 mg/kg, 1 mL, PO) • Group#5: Example 6 (free base) (30 mg/kg, 1 mL, PO)
TNF-α was measured with a commercially available ELISA kit (R&D, RTA00). […] The TMED50=3 mg/kg for the compound of Example 6 in this assay.

For experiment [1], the system named is Female Lewis rats, collagen induced arthritis. The experiment in a line: Rat Collagen Induced Arthritis Efficacy Model. Type of experiment: in vivo. As to conditions: 30 mg/kg bid, PO, 14 days. How it is done:
Female Lewis rats ((≅190 gm, Charles River Labs) are immunized with Bovine type II collagen (2 mg/ml) emulsified with an equal volume of adjuvant (aluminum hydroxide). […]. The rats are immunized with approximately […] of the emulsion intradermally on the back neat the base of the tail. All animals are re-immunized 7 days later according to the same protocol. The rats begin to develop arthritis (characterized by swell-ling and redness of one or both ankles) from 12 to 14 days after the first immunization. The rats are equally distributed into five treatment groups at the first signs of arthritis and treatment is initiated with each rat dosed bid for 14 days.
Ankle diameter is measured with calipers 5 days a week and recorded. Data is expressed as the area under the curve (AUC) generated from the composite inflammation scores and statistical analysis performed.

The structures appear in SMILES notation.

Take `CC(C)Cn1c(N)nc2ccc(-c3[nH]c(-c4c(F)cccc4F)nc3-c3ccccc3)cc21` [Example 6, 1-(Isobutyl)-2-amino-6-(2-(2,6-difluorophenyl)-4-phenyl-1H-imidazol-5-yl)-1H-benzimidazole]: in the experiment on TNF-α (oral, intra-articular LPS induced TNF-α in synovial lavage fluid), the TMED50 amounted to 3 mg/kg. Also, in experiment [1], the “reduced inflammation (AUC of composite inflammation scores, ankle diameter)” value is given as 30%.

As to `CS(=O)(=O)O.C[C@@H](n1c(N)nc2ccc(-c3[nH]c(-c4c(F)cccc4F)nc3-c3ccccc3)cc21)C(C)(C)C` [Example 78, 6-[2-(2,6-Difluorophenyl)-5-phenyl-3H-imidazol-4-yl]-1-(1-(R)-methyl-2,2-dimethylpropyl)-1H-benzimidazol-2-ylamine methanesulfonate], the “inhibition of TNF-α synthesis, as measured in the synovial lavage fluid” value in the experiment on TNF-α (oral 1, 3, 10, 30 mg/kg, intra-articular LPS 10 μg one hour later, lavage after two hours, ELISA) was “dose-dependent inhibition”.

For the origin of these results see patent US7863310B2, “Kinase inhibitors” (Eli Lilly and Company, priority 2004, dated 2011).
